Data taken from US8163921B2, “Hepatitis C virus inhibitors” (Bristol-Myers Squibb Company, priority 2008, dated 2012).
Where two headings read alike, the source gives them in different places.

Assays:
[1] = target: T1, HCV NS3/4A protease complex, BMS strain (UniProt P27958, C1454S/C1711G, species not given); test: FRET peptide assay to monitor HCV NS3/4A proteolytic activity (BMS strain); format: biochemical, HCV genotype 1a; conditions: read-out: IC50 Range, HCV NS3/4A enzyme assay
T1 construct: other: HCV NS3/4A enzyme assay; class symbols; numeric values; fused on or other part: three-lysine solubilising tail at the C-terminus of NS4A; purified on Ni-NTA from the pET21b vector (His tag implied)
Outline: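 Recombinant HCV NS3/4A protease complex (BMS strain, genotype 1a), 2-3 nM final (300 pM with 50 μg/ml BSA for very potent compounds), incubated with RET S1 EDANS/DABCYL depsipeptide substrate at 2 μM final. Buffer: 50 mM HEPES pH 7.5, 0.15 M NaCl, 0.1% Triton, 15% glycerol, 10 mM βME. Cleavage followed in real time by fluorescence.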

[2] = tested on: HCV replicon in HUH-7 cells; test: HCV replicon FRET assay; format: cell-based, HCV strain 1b; conditions: Hepatitis C virus
Description: An HCV replicon whole cell system was established as described by Lohmann V, Korner F, Koch J, Herian U, Theilmann L, Bartenschlager R., Science 285(5424):110-3 (1999). This system enabled us to evaluate the effects of our HCV Protease compounds on HCV RNA replication. Briefly, using the HCV strain 1b sequence described in the Lohmann paper (Assession number:AJ238799), an HCV cDNA was synthesized by Operon Technologies, Inc. (Alameda, Calif.), and the full-length replicon was then assembled in plasmid pGem9zf(+) (Promega, Madison, Wis.) using standard molecular biology techniques. The replicon consists of (i) the HCV 5′ UTR fused to the first 12 amino acids of the capsid protein, (ii) the neomycin phosphotransferase gene (neo), (iii) the IRES from encephalomyocarditis virus (EMCV), and (iv) HCV NS3 to NS5B genes and the HCV 3′ UTR. Plasmid DNAs were linearized with ScaI and RNA transcripts were synthesized in vitro using the T7 MegaScript transcription kit (Ambion, Austin, Tex.) according to manufacturer's directions. In vitro transcripts of the eDNA were transfected into the human hepatoma cell line, HUH-7. […] Resulting cell lines were characterized for positive and negative strand RNA production and protein production over time.
The HCV replicon FRET assay was developed to monitor the inhibitory effects of compounds described in the disclosure on HCV viral replication. HUH-7 cells, constitutively expressing the HCV replicon, were grown in Dulbecco's Modified Eagle Media (DMEM) (Gibco-BRL) containing 10% Fetal calf serum (FCS) (Sigma) and 1 mg/ml G418 (Gibco-BRL). Cells were seeded the night before (1.5×10^4 cells/well) in 96-well tissue-culture sterile plates. Compound and no compound controls were prepared in DMEM containing 4% FCS, 1:100 Penicillin/Streptomysin (Gibco-BRL), 1:100 L-glutamine and 5% DMSO in the dilution plate (0.5% DMSO final concentration in the assay). Compound/DMSO mixes were added to the cells and incubated for 4 days at 37° C. After 4 days, cells were first assessed for cytotoxicity using alamar Blue (Trek Diagnotstic Systems) for a CC50 reading. The toxicity of compound (CC50) was determined by adding 1/10th volume of alamar Blue to the media incubating the cells. After 4 h, the fluorescence signal from each well was read, with an excitation wavelength at 530 nm and an emission wavelength of 580 nm, using the Cytofluor Series 4000 (Perspective Biosystems). Plates were then rinsed thoroughly with Phosphate-Buffered Saline (PBS) (3 times 150 μl).

[3] = Huh-7, HCV replicon cell assay, numeric values, read-out: EC50 Range

| SMILES | IC50 ([1]; class symbols) [nM] | EC50 ([2]; Huh-7, read-out: EC50 Range) [nM] | IC50 ([1]; numeric values) [nM] | EC50 [2, 3] [nM] |
| --- | --- | --- | --- | --- |
| C=C[C@@H]1C[C@]1(NC(=O)[C@@H]1C[C@@H](Oc2ncc(OC)c3ccc(Cl)cc23)CN1C(=O)[C@@H](Nc1nc(-c2ccc(Cl)c(Cl)c2)cs1)C(C)(C)C)C(=O)NS(=O)(=O)C1CC1 [Example 29] | 1 to 20 | 1 to 50 | – | – |
| C=C[C@@H]1C[C@]1(NC(=O)[C@@H]1C[C@@H](Oc2ncc(OC)c3ccc(Cl)cc23)CN1C(=O)[C@@H](Nc1nc(-c2cc(OC)ccc2OC)cs1)C(C)(C)C)C(=O)NS(=O)(=O)C1CC1 [Example 30] | 1 to 20 | 1 to 50 | – | – |
| C=C[C@@H]1C[C@]1(NC(=O)[C@@H]1C[C@@H](Oc2ncc(OC)c3ccc(Cl)cc23)CN1C(=O)[C@@H](Nc1nc(-c2ccc(Br)cc2)cs1)C(C)(C)C)C(=O)NS(=O)(=O)C1CC1 [Example 31] | 1 to 20 | 1 to 50 | – | – |
| C=C[C@@H]1C[C@]1(NC(=O)[C@@H]1C[C@@H](Oc2ncc(OC)c3ccc(Cl)cc23)CN1C(=O)[C@@H](Nc1nc(-c2ccc(F)cc2)cs1)C(C)(C)C)C(=O)NS(=O)(=O)C1CC1 [Example 32] | 1 to 20 | 1 to 50 | – | – |
| C=C[C@@H]1C[C@]1(NC(=O)[C@@H]1C[C@@H](Oc2ncc(OC)c3ccc(Cl)cc23)CN1C(=O)[C@@H](Nc1nc(-c2ccccc2OC)cs1)C(C)(C)C)C(=O)NS(=O)(=O)C1CC1 [Example 33] | – | – | 9 | 6.84 |
| C=C[C@@H]1C[C@]1(NC(=O)[C@@H]1C[C@@H](Oc2ncc(OC)c3ccc(Cl)cc23)CN1C(=O)[C@@H](Nc1nc(-c2ccc(C)cc2C)cs1)C(C)(C)C)C(=O)NS(=O)(=O)C1CC1 [Example 34] | 1 to 20 | 1 to 50 | – | – |
| C=C[C@@H]1C[C@]1(NC(=O)[C@@H]1C[C@@H](Oc2ncc(OC)c3ccc(Cl)cc23)CN1C(=O)[C@@H](Nc1nc(-c2cccc(OC)c2)cs1)C(C)(C)C)C(=O)NS(=O)(=O)C1CC1 [Example 35] | 1 to 20 | 1 to 50 | – | – |
| C=C[C@@H]1C[C@]1(NC(=O)[C@@H]1C[C@@H](Oc2ncc(OC)c3ccc(Cl)cc23)CN1C(=O)[C@@H](Nc1nc(-c2ccc3c(c2)OCCO3)cs1)C(C)(C)C)C(=O)NS(=O)(=O)C1CC1 [Example 36] | 1 to 20 | 1 to 50 | – | – |
| C=C[C@@H]1C[C@]1(NC(=O)[C@@H]1C[C@@H](Oc2ncc(OC)c3ccc(Cl)cc23)CN1C(=O)[C@@H](Nc1nc(-c2ccc(Cl)cc2Cl)cs1)C(C)(C)C)C(=O)NS(=O)(=O)C1CC1 [Example 37] | 20 to 200 | 1 to 50 | – | – |
| C=C[C@@H]1C[C@]1(NC(=O)[C@@H]1C[C@@H](Oc2ncc(OC)c3ccc(Cl)cc23)CN1C(=O)[C@@H](Nc1nc(-c2ccc(Cl)cc2)cs1)C(C)(C)C)C(=O)NS(=O)(=O)C1CC1 [Example 38] | 1 to 20 | 1 to 50 | – | – |
| C=C[C@@H]1C[C@]1(NC(=O)[C@@H]1C[C@@H](Oc2ncc(OC)c3ccc(Cl)cc23)CN1C(=O)[C@@H](Nc1nc(-c2ccccc2F)cs1)C(C)(C)C)C(=O)NS(=O)(=O)C1CC1 [Example 39] | 1 to 20 | 1 to 50 | – | – |
| C=C[C@@H]1C[C@]1(NC(=O)[C@@H]1C[C@@H](Oc2ncc(OC)c3ccc(Cl)cc23)CN1C(=O)[C@@H](Nc1nc(-c2ccc3c(c2)OCO3)cs1)C(C)(C)C)C(=O)NS(=O)(=O)C1CC1 [Example 40] | 1 to 20 | 1 to 50 | – | – |
| C=C[C@@H]1C[C@]1(NC(=O)[C@@H]1C[C@@H](Oc2ncc(OC)c3ccc(Cl)cc23)CN1C(=O)[C@@H](Nc1nc(-c2ccc(N3CCOCC3)cc2)cs1)C(C)(C)C)C(=O)NS(=O)(=O)C1CC1 [Example 41] | 1 to 20 | 1 to 50 | – | – |
| C=C[C@@H]1C[C@]1(NC(=O)[C@@H]1CC(Oc2ncc(OC)c3ccc(Cl)cc23)CN1C(=O)[C@@H](Nc1nc(-c2nc3ccccc3n2C)cs1)C(C)(C)C)C(=O)NS(=O)(=O)C1CC1 (stereo partly shown) [Example 42] | 1 to 20 | 1 to 50 | – | – |
| C=C[C@@H]1C[C@]1(NC(=O)[C@@H]1C[C@@H](Oc2ncc(OC)c3ccc(Cl)cc23)CN1C(=O)[C@@H](Nc1nc(-c2cccc(F)c2)cs1)C(C)(C)C)C(=O)NS(=O)(=O)C1CC1 [Example 43] | 1 to 20 | 1 to 50 | – | – |
| C=C[C@@H]1C[C@]1(NC(=O)[C@@H]1C[C@@H](Oc2ncc(OC)c3ccc(Cl)cc23)CN1C(=O)[C@@H](Nc1nc(-c2ccc(N(CC)CC)cc2)cs1)C(C)(C)C)C(=O)NS(=O)(=O)C1CC1 [Example 44] | 1 to 20 | 1 to 50 | – | – |
| C=C[C@@H]1C[C@]1(NC(=O)[C@@H]1C[C@@H](Oc2ncc(OC)c3ccc(Cl)cc23)CN1C(=O)[C@@H](Nc1nc(-c2ccccc2)c(-c2ccccc2)s1)C(C)(C)C)C(=O)NS(=O)(=O)C1CC1 [Example 45] | 1 to 20 | 1 to 50 | – | – |
| C=C[C@@H]1C[C@]1(NC(=O)[C@@H]1C[C@@H](Oc2ncc(OC)c3ccc(Cl)cc23)CN1C(=O)[C@@H](Nc1nc(-c2ccc(C(=O)O)cc2)cs1)C(C)(C)C)C(=O)NS(=O)(=O)C1CC1 [Example 46] | 1 to 20 | 1 to 50 | – | – |
| C=C[C@@H]1C[C@]1(NC(=O)[C@@H]1C[C@@H](Oc2ncc(OC)c3ccc(Cl)cc23)CN1C(=O)[C@@H](Nc1nc(-c2c(F)c(F)c(F)c(F)c2F)cs1)C(C)(C)C)C(=O)NS(=O)(=O)C1CC1 [Example 47] | 1 to 20 | 1 to 50 | – | – |
| C=C[C@@H]1C[C@]1(NC(=O)[C@@H]1C[C@@H](Oc2ncc(OC)c3ccc(Cl)cc23)CN1C(=O)[C@@H](Nc1nc(-c2cccc(Cl)c2)cs1)C(C)(C)C)C(=O)NS(=O)(=O)C1CC1 [Example 48] | 1 to 20 | 1 to 50 | – | – |
| C=C[C@@H]1C[C@]1(NC(=O)[C@@H]1C[C@@H](Oc2ncc(OC)c3ccc(Cl)cc23)CN1C(=O)[C@@H](Nc1nc(-c2ccccc2Cl)cs1)C(C)(C)C)C(=O)NS(=O)(=O)C1CC1 [Example 49] | 1 to 20 | 1 to 50 | – | – |
| C=C[C@@H]1C[C@]1(NC(=O)[C@@H]1C[C@@H](Oc2ncc(OC)c3ccc(Cl)cc23)CN1C(=O)[C@@H](Nc1nc(-c2ccccc2O)cs1)C(C)(C)C)C(=O)NS(=O)(=O)C1CC1 [Example 50] | – | – | 39 | 18.9 |
| C=C[C@@H]1C[C@]1(NC(=O)[C@@H]1C[C@@H](Oc2ncc(OC)c3ccc(Cl)cc23)CN1C(=O)[C@@H](Nc1nc(-c2ccc(OC)cc2F)cs1)C(C)(C)C)C(=O)NS(=O)(=O)C1CC1 [Example 51] | 1 to 20 | 1 to 50 | – | – |
| C=C[C@@H]1C[C@]1(NC(=O)[C@@H]1C[C@@H](Oc2ncc(OC)c3ccc(Cl)cc23)CN1C(=O)[C@@H](Nc1nc(-c2ccc(F)c(Cl)c2)cs1)C(C)(C)C)C(=O)NS(=O)(=O)C1CC1 [Example 52] | 1 to 20 | 1 to 50 | – | – |
| C=C[C@@H]1C[C@]1(NC(=O)[C@@H]1C[C@@H](Oc2ncc(OC)c3ccc(Cl)cc23)CN1C(=O)[C@@H](Nc1nc(-c2cc(Cl)cc(Cl)c2F)cs1)C(C)(C)C)C(=O)NS(=O)(=O)C1CC1 [Example 53] | – | – | 17 | 20.3 |
| C=C[C@@H]1C[C@]1(NC(=O)[C@@H]1C[C@@H](Oc2ncc(OC)c3ccc(Cl)cc23)CN1C(=O)[C@@H](Nc1nc(-c2cc(C)ccc2OC)cs1)C(C)(C)C)C(=O)NS(=O)(=O)C1CC1 [Example 54] | 1 to 20 | 1 to 50 | – | – |
| C=C[C@@H]1C[C@]1(NC(=O)[C@@H]1C[C@@H](Oc2ncc(OC)c3ccc(Cl)cc23)CN1C(=O)[C@@H](Nc1nc(-c2cc(Cl)cc(Cl)c2OC)cs1)C(C)(C)C)C(=O)NS(=O)(=O)C1CC1 [Example 55] | 1 to 20 | 1 to 50 | – | – |
| C=C[C@@H]1C[C@]1(NC(=O)[C@@H]1C[C@@H](Oc2ncc(OC)c3ccc(Cl)cc23)CN1C(=O)[C@@H](Nc1nc(-c2cc(F)ccc2OC)cs1)C(C)(C)C)C(=O)NS(=O)(=O)C1CC1 [Example 56] | 1 to 20 | 1 to 50 | – | – |
| C=C[C@@H]1C[C@]1(NC(=O)[C@@H]1C[C@@H](Oc2ncc(OC)c3ccc(Cl)cc23)CN1C(=O)[C@@H](Nc1nc(-c2c(Cl)cccc2Cl)cs1)C(C)(C)C)C(=O)NS(=O)(=O)C1CC1 [Example 57] | 1 to 20 | 1 to 50 | – | – |
